# Measurements published in ChEMBL document CHEMBL1177689, “Structural characteristics of green tea catechins for formation of protein carbonyl in human serum albumin” (Bioorg Med Chem, 2010).
# Tests used:
# Albumin = Albumin (Homo sapiens, UniProt P02768); test: Binding affinity to human serum albumin in 100 mM phosphate buffer at pH 7.4 assessed as formation of biotin-LC-hydrazide labeled protein carbonyls at 100 uM pretreated 60 mins before biotin-LC-hydrazide challenge measured after 60 mins by SDS-PAGE/Western blotting; assay type: ADME; settings: isolated protein, pH 7.4, 1 h
# [1] = Chemical stability in 100 mM phosphate buffer at pH 7.4 at 100 uM after 60 mins by HPLC analysis; assay type: physicochemical; settings: pH 7.4, 1 h
# Sequence of Albumin (P02768 whole entry): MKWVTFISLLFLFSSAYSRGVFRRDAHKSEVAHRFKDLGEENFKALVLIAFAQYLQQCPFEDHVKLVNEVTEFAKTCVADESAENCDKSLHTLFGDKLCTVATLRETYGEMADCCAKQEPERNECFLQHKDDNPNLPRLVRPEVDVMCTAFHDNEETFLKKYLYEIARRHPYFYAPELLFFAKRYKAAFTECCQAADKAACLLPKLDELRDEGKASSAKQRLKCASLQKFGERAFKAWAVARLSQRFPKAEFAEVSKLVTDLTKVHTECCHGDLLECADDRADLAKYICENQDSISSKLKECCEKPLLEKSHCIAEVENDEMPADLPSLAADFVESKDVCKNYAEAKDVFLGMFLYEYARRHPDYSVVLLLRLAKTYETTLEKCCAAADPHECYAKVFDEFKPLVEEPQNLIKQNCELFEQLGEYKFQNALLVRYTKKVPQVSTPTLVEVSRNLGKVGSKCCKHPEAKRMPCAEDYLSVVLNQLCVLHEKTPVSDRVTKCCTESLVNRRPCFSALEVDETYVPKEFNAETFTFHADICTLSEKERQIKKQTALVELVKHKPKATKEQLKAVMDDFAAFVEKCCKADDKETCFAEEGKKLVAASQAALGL
Activity (Albumin),Stability [1],Compound
Active,–,COc1c(O)cc(C(=O)O[C@@H]2Cc3c(O)cc(O)cc3O[C@@H]2c2cc(O)c(O)c(O)c2)cc1O
Active,Unstable,COc1cc(C(=O)O[C@@H]2Cc3c(O)cc(O)cc3O[C@@H]2c2cc(O)c(O)c(O)c2)cc(O)c1O
Not Active,–,"O=C(O)c1cccc(O)c1O [2,3-DIHYDROXYBENZOIC ACID]"
Active,Stable,Oc1cc(O)c2c(c1)O[C@H](c1ccc(O)c(O)c1)[C@H](O)C2 [(-)-EPICATECHIN]
Active,Stable,O=C(O[C@@H]1Cc2c(O)cc(O)cc2O[C@@H]1c1ccc(O)c(O)c1)c1cc(O)c(O)c(O)c1 [EPICATECHIN GALLATE]
Not Active,–,O=C(O)c1ccc(O)c(O)c1 [PROTOCATECHUIC ACID]
Active,–,Oc1cccc(O)c1O [PYROGALLOL]

# The remaining lines, values behind:
Compound,Activity (Albumin),Stability [1]
COc1c(O)cc([C@H]2Oc3cc(O)cc(O)c3C[C@H]2OC(=O)c2cc(O)c(O)c(O)c2)cc1O,Active,Stable
"O=C(O)c1cc(O)cc(O)c1 [3,5-DIHYDROXYBENZOIC ACID]",Not Active,–
Oc1cc(O)c2c(c1)O[C@H](c1cc(O)c(O)c(O)c1)[C@H](O)C2 [EPIGALLOCATECHIN],Active,Unstable
O=C(O[C@@H]1Cc2c(O)cc(O)cc2O[C@@H]1c1cc(O)c(O)c(O)c1)c1cc(O)c(O)c(O)c1 [EPIGALOCATECHIN GALLATE],Active,Unstable
COC(=O)c1cc(O)c(O)c(O)c1 [GALLIC ACID METHYL ESTER],Not Active,–
